Each structure is given as a SMILES string.

The target of one test is SARS-CoV-2 Papain like protease (PLpro) (Severe acute respiratory syndrome coronavirus 2 (2019-nCoV) (SARS-CoV-2), UniProt P0DTD1). Description: Papain Like Protease (PLpro) biochemical assay with profluorogenic substrate Z-RLRGG-AMC. The note with it: IC50 (μM), SARS-CoV-2 PLpro 6.25 nM, 25 μM Z-RLRGG-AMC substrate, 60 minute reaction.
`Cc1ccc(N2CCN(C)CC2)cc1C(=O)NC1(c2cc(-c3cnn(C)c3)cc3ccccc23)CC1` [Example 231, 2-methyl-N-(1-(3-(1-methyl-1H-pyrazol-4-yl)naphthalen-1-yl)cyclopropyl)-5-(4-methylpiperazin-1-yl)benzamide]: the IC50 – broadly, the concentration that inhibits the measured activity by half – came to 0.003 µM.

The test is the same for the next values; noted with them: SARS-CoV-2 PLpro 6.25 nM, 25 μM Z-RLRGG-AMC substrate, 60 minute reaction; read-out: IC50.
In the case of `Cc1ccccc1C(=O)NC(C)c1cc(CCn2cccn2)nc2ccccc12` (stereo in doubt) [Example 157, 2-methyl-N-[(1R)-1-{2-[2-(1H-pyrazol-1-yl)ethyl]-quinolin-4-yl}ethyl]benzamide], the IC50 is 2.68 µM.

With `Cc1ccc(NC(=O)[C@H]2CCCCN2)cc1C(=O)NC(C)c1cc(-c2cn[nH]c2)cc2ccccc12` (stereo partly drawn) [Example 51, (2R)—N-(3-((1-(3-(1H-pyrazol-4-yl)naphthalen-1-yl)ethyl)carbamoyl)-4-methylphenyl)piperidine-2-carboxamide], the IC50 stood at 0.019 µM.

As for `Cc1cc(C(=O)NC(C)c2ncc[nH]2)ccc1C(=O)N[C@H](C)c1cc(-c2cnn(C)c2)nc2ccccc12` (stereo partly drawn) [Example 246], the IC50 amounted to 0.035 µM.

For the molecule `Cc1cnc(N2CC3CCC2CN3)cc1C(=O)NC1(c2cc(-c3cnn(C)c3)nc3ccccc23)CC1` (stereo not drawn) [Example 284, 2-(2,5-diazabicyclo[2.2.2]octan-2-yl)-5-methyl-N-(1-(2-(1-methyl-1H-pyrazol-4-yl)quinolin-4-yl)cyclopropyl)isonicotinamide], the IC50 was determined as 0.006 µM.

Turning to `Cc1cc(C(=O)NC2(c3cscn3)CC2)ccc1C(=O)N[C@H](C)c1cc(-c2cnn(C)c2)nc2ccccc12` [Example 314, (R)-2-methyl-N1-(1-(2-(1-methyl-1H-pyrazol-4-yl)quinolin-4-yl)ethyl)-N4-(1-(thiazol-4-yl)cyclopropyl)terephthalamide], the IC50 amounted to 0.002 µM.

Regarding `Cc1ccccc1C(=O)N[C@H](C)c1cc(Nc2ccn(C)n2)nc2ccccc12` [Example 38, (R)-2-methyl-N-(1-(2-((1-methyl-1H-pyrazol-3-yl)amino)quinolin-4-yl)ethyl)benzamide], the 50% inhibitory concentration (IC50) is 1.63 µM.

`C[C@@H](NC(=O)c1ccccc1CCC(=O)NNC(=O)/C=C/C(=O)N(C)C)c1cc(-c2cnn(C)c2)nc2ccccc12` [Example 234, (R,E)-2-(3-(2-(4-(dimethylamino)-4-oxobut-2-enoyl)hydrazineyl)-3-oxopropyl)-N-(1-(2-(1-methyl-1H-pyrazol-4-yl)quinolin-4-yl)ethyl)benzamide]: the IC50 was 0.128 µM.

With `Cc1ccccc1C(=O)NC(C)c1cc(-c2ccc(N)nc2)nc2ccccc12` (stereo not drawn) [Example 127, N-{1-[2-(6-aminopyridin-3-yl)quinolin-4-yl]ethyl}-2-methylbenzamide], the IC50 worked out at 1.82 µM.

As to `Cc1ccccc1C(=O)NC(C)c1cc(-c2cn(C(C)C)nc2C)nc2ccccc12` (stereo not drawn) [Example 136, 2-methyl-N-(1-{2-[3-methyl-1-(propan-2-yl)-1H-pyrazol-4-yl]quinolin-4-yl}ethyl) benzamide], the half-maximal inhibitory concentration (IC50) was determined as 1.41 µM.

Consider `Cc1ccccc1C(=O)NC(C)c1cc(NC2CCCOC2)nc2ccccc12` (stereo not drawn) [Example 147], for which the IC50 is 0.909 µM.

As to `Cc1ccccc1C(=O)NC(C)c1cc(CC#N)nc2ccccc12` (stereo in doubt) [Example 159, N-{(1R)-1-[2-(cyanomethyl)quinolin-4-yl]-ethyl}-2-methylbenzamide], the IC50 was found to be 1.97 µM.

On to `CCCc1cc(C(C)NC(=O)c2ccccc2C)c2ccccc2n1` (stereo in doubt) [Example 153, 2-methyl-N-[(1R)-1-(2-propylquinolin-4-yl)ethyl]benzamide], for which the IC50 was 0.311 µM.

As for `Cc1ccccc1C(=O)NC(C)c1cc(-c2cnn(CCN3CCOCC3)c2)nc2ccccc12` (stereo not drawn) [Example 125, 2-methyl-N-[1-(2-{1-[2-(morpholin-4-yl)ethyl]-1H-pyrazol-4-yl}quinolin-4-yl)ethyl]benzamide], the IC50 was 0.294 µM.

As for `Cc1ccc(NC(=O)[C@H]2CCCCN2)cc1C(=O)N[C@H](C)c1cc(-c2ccn[nH]2)cc2ccccc12` (single isomer, unassigned) [Example 68], the IC50 was found to be 0.009 µM.

For the molecule `CC(C)OC(=O)/C=C/C(=O)NNC(=O)CCc1ccccc1C(=O)N[C@H](C)c1cc(-c2cnn(C)c2)nc2ccccc12` [Example 233, isopropyl (R,E)-4-(2-(3-(2-((1-(2-(1-methyl-1H-pyrazol-4-yl)quinolin-4-yl)ethyl)carbamoyl)phenyl)propanoyl)hydrazineyl)-4-oxobut-2-enoate], the IC50 stood at 0.003 µM.

With `C[C@@H](NC(=O)c1ccccc1CCC(=O)NNC(=O)/C=C/C(N)=O)c1cc(-c2cnn(C)c2)nc2ccccc12` [Example 224, (R,E)-2-(3-(2-(4-amino-4-oxobut-2-enoyl)hydrazineyl)-3-oxopropyl)-N-(1-(2-(1-methyl-1H-pyrazol-4-yl)quinolin-4-yl)ethyl)benzamide], the IC50 was found to be 0.006 µM.

Regarding `Cc1ccc(N2CCNCC2=O)cc1C(=O)N[C@H](C)c1cc(-c2cnn(C)c2)nc2ccccc12` [Example 248], the IC50 came to 0.39 µM.

In the case of `COCC(OCc1cscn1)c1ccc(C(=O)NC2(c3cc(-c4cnn(C)c4)nc4ccccc34)CC2)c(C)c1` (single isomer, unassigned) [Example 324], the concentration for half-maximal inhibition (IC50) was less than 0.001 µM.

For `Cc1ccc(N2CCNCC2)cc1C(=O)N[C@H](C)c1cc(-c2cnn(C)c2)nc2ccccc12` [Example 55, (R)-2-methyl-N-(1-(2-(1-methyl-1H-pyrazol-4-yl)quinolin-4-yl)ethyl)-5-(piperazin-1-yl)benzamide], the IC50 worked out at 0.018 µM.

In the case of `Cc1cc(C(=O)N(C)Cc2cscn2)ccc1C(=O)N[C@H](C)c1cc(-c2cnn(C)c2)nc2ccccc12` [Example 243], the IC50 amounted to 0.077 µM.

`Cc1ccc(CN)cc1C(=O)N[C@H](C)c1cc(-c2cnn(C)c2)cc2ccccc12` (single isomer, unassigned) [Example 9]: the IC50 stood at 3.92 µM.

On to `COC(=O)/C=C/C(=O)NNC(=O)CCc1ccccc1C(=O)NC1(c2cc(-c3cnn(C)c3)nc3ccccc23)CC1` [Example 225, methyl (E)-4-(2-(3-(2-((1-(2-(1-methyl-1H-pyrazol-4-yl)quinolin-4-yl)cyclopropyl)carbamoyl)phenyl)propanoyl)hydrazineyl)-4-oxobut-2-enoate], for which the IC50 worked out at 0.006 µM.

For `Cc1ccc(N2CCC(N)C2=O)cc1C(=O)N[C@H](C)c1cc(-c2cnn(C)c2)nc2ccccc12` (stereo partly drawn) [Example 247], the IC50 was determined as 0.091 µM.

Turning to `Cc1ccc(CN)cc1C(=O)NC(C)c1cc(-n2ccc(C#N)n2)nc2ccccc12` (stereo not drawn) [Example 35, 5-(aminomethyl)-N-(1-(2-(3-cyano-1H-pyrazol-1-yl)quinolin-4-yl)ethyl)-2-methylbenzamide], the IC50 was found to be 1.48 µM.

For `Cc1ccc(CN)cc1C(=O)N[C@H](C)c1cc(-c2cn[nH]c2)nc2ccccc12` [Example 18, (R)-N-(1-(2-(1H-pyrazol-4-yl)quinolin-4-yl)ethyl)-5-(aminomethyl)-2-methylbenzamide], the IC50 worked out at 0.027 µM.

On to `Cc1ccc(N2C[C@H]3C[C@@H]2CN3C)cc1C(=O)N[C@H](C)c1cc(-c2cnn(C)c2)nc2ccccc12` (single isomer, unassigned) [Example 281, 2-methyl-N—((R)-1-(2-(1-methyl-1H-pyrazol-4-yl)quinolin-4-yl)ethyl)-5-((1R*,4R*)-5-methyl-2,5-diazabicyclo[2.2.1]heptan-2-yl)benzamide], for which the IC50 turned out to be 0.003 µM.

(Values after US20240245673A1, “Papain-like protease (PLpro) inhibitors” (Pfizer Inc., priority 2022, published 2024).)
